TGI and GI50 data for 14 compounds are collected here from PubChem BioAssay (NCI).

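Five compound concentrations were applied to cells in 96-well plates for 48 hours; endpoints were derived by simple linear interpolation of the resulting dose-response curve. GI50: concentration for 50% inhibition of growth. The concentration for full growth arrest is given as TGI.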 A value given as a limit tells only on which side of the number the result lay.

Holding throughout (assay): inhibition of tumour cell growth, NCI panel, 48 h
In experiment [1] the test system is RXF 393 renal.
The subject of experiment [2] is EKVX NSCLC.
Experiment [3] relates to ACHN renal.
The test system of experiment [4] is LOX IMVI melanoma.
The subject of experiment [5] is HOP-92 NSCLC.
Experiment [6] relates to HOP-62 NSCLC.
Experiment [7] deals with RPMI-8226 leukemia.
In experiment [8] the test system is HCC-2998 colon.
Experiment [9] relates to CCRF-CEM leukemia.
Experiment [10] has as its system SK-MEL-2 melanoma.
The test system of experiment [11] is MCF7 breast.
Experiment [12] has as its system SW-620 colon.
The test system of experiment [13] is U251 CNS.
Experiment [14] relates to SF-295 CNS.
The test system of experiment [15] is IGROV1 ovarian.
Experiment [16] has as its system OVCAR-5 ovarian.
For experiment [17], the system named is NCI-H522 lung.

With `Cc1c(/C=N/NC(=S)Nc2ccc([N+](=O)[O-])cc2)c(=O)n(-c2ccccc2)n1C`, the TGI in [1] is 24.8 µM; in experiment [2], 24.5 µM; in experiment [3] it was 23.6 µM; in experiment [4], 33.3 µM; in experiment [5], 25.5 µM; in [6], 23.8 µM. In addition, the TGI in experiment [7] was more than 100 µM; in experiment [8] it was more than 100 µM; in experiment [9], more than 100 µM; in experiment [10], 30.5 µM; in experiment [11], 50 µM; in experiment [12], more than 100 µM. Moreover, the TGI in experiment [13] is 30.9 µM; in [14], 22.7 µM; in [15], 25.9 µM.
For `COc1cc2c(OC)c3cc(C)oc(=O)c3c(O)c2c(O)c1-c1c(OC)cc2c(OC)c3cc(C)oc(=O)c3c(O)c2c1O`, the TGI in experiment [1] came out at 35.9 µM; in experiment [2] it was 62.3 µM; in [3], 33.3 µM; in [4] it was 43.8 µM; in [5], 55.9 µM; in [6], 30.1 µM. Also, the TGI came out at 40.2 µM in [7]; 33.5 µM in experiment [8]; 39.3 µM in experiment [9]; 40.9 µM in [16]; 35.8 µM in experiment [10]; 51.1 µM in [11]. The TGI in experiment [12] is more than 100 µM; in experiment [13] it was 31.7 µM; in experiment [14], 39.7 µM; in experiment [15] it was 31.1 µM; in experiment [17] it was 40 µM.
As to `Cc1cc2c(=O)c3ccc(Cl)cc3[nH]c2c(C(=O)O)c1C`, the TGI in experiment [1], in [2], in experiment [3], in [4], in [6] and in experiment [7] was more than 100 µM each time. In addition, the TGI in experiment [8], in experiment [9], in experiment [16], in [10], in [12] and in experiment [13] was more than 100 µM throughout. Also, the TGI in experiment [14], in experiment [15] and in [17] was more than 100 µM in each case.
As for `N#CC(NNC(=O)Cc1ccccc1)c1ccc(O)cc1` (stereo unspecified), the TGI in experiment [1], in experiment [3], in experiment [4], in [5], in [6] and in [7] was more than 100 µM each time. For the same compound, the TGI in [9], in [16], in experiment [10], in [12], in experiment [13] and in experiment [14] was more than 100 µM in each case. Besides, the TGI in [15] and in experiment [17] was more than 100 µM throughout.
As for `Cc1ccc(OC2CC(n3cnc4c(=O)[nH]c(Br)nc43)OC2Oc2ccc(C)cc2)cc1` (stereo unspecified), the TGI in experiment [1] amounted to 60.5 µM; in [2] it was 62.8 µM; in [3], 38 µM; in experiment [4], 72 µM; in experiment [5], 45.9 µM; in experiment [6], 49.5 µM. The TGI was 87.9 µM in experiment [7]; 47.3 µM in experiment [8]; 53.7 µM in experiment [9]; 48.2 µM in [16]; 75.8 µM in experiment [10]; more than 100 µM in experiment [11]. The TGI in [12] was more than 100 µM; in experiment [13], 79.9 µM; in experiment [14] it was 61.9 µM; in experiment [15], 66.9 µM; in [17], 59.8 µM.
For `Nc1c2ccccc2nc2nccnc12`, the TGI in [1], in experiment [2], in [3], in [4], in experiment [5] and in experiment [6] was more than 100 µM each time. Also, the TGI in [7], in [8], in [9], in experiment [16], in experiment [10] and in experiment [12] was more than 100 µM in each case. Further, the TGI in experiment [13], in experiment [14], in experiment [15] and in [17] was more than 100 µM in each case.
For `N[C@@H]1c2c(Br)sc(Br)c2C(=O)[C@H]1Br`, the TGI in experiment [1] was 53.6 µM; in experiment [2], more than 88 µM; in [3] it was 43.8 µM; in experiment [4], 33.3 µM; in experiment [5], 33 µM; in experiment [6] it was more than 93.6 µM. The TGI in experiment [7] is 39.5 µM; in [8], more than 76.1 µM; in [9], more than 22.6 µM; in [16], more than 100 µM; in experiment [10], more than 100 µM; in experiment [11] it was more than 100 µM. In addition, the TGI in [12] is 44.4 µM; in [13], 60.1 µM; in [14], more than 100 µM; in [15], 45.9 µM; in experiment [17] it was 29 µM.
Turning to `O=C(CSc1nc(-c2ccccc2)c(-c2ccccc2)[nH]1)N/N=C/c1ccc([N+](=O)[O-])cc1`, the TGI in experiment [3] is 92.6 µM; in experiment [4], 30.4 µM; in experiment [5], 29.3 µM; in experiment [6], 33.7 µM; in [7] it was 52.1 µM; in experiment [9], 61.3 µM. The TGI in experiment [10] is 26.9 µM; in experiment [13], 27.5 µM; in experiment [14], 36.1 µM; in experiment [15], 33.8 µM; in [17], 28.9 µM.
On to `Nc1ccc(N=Nc2ccc(-c3ccc(N=Nc4c(S(=O)(=O)O)cc5cc(S(=O)(=O)O)c(N=Nc6ccc([N+](=O)[O-])cc6)c(N)c5c4O)cc3)cc2)c2cc(S(=O)(=O)O)ccc12`, for which the TGI in experiment [1], in experiment [2], in [3], in experiment [4], in [5] and in experiment [6] was more than 100 µM each time. Moreover, the TGI in experiment [7], in experiment [8], in experiment [9], in experiment [16], in [10] and in experiment [12] was more than 100 µM each time. In addition, the TGI in [13], in experiment [14], in experiment [15] and in [17] was more than 100 µM each time.
Consider `COc1ccc(-c2cc(=O)c3cc4c(cc3[nH]2)OCO4)c(OC)c1`, for which the GI50 was 45.4 µM in experiment [1] and 46.2 µM in experiment [14]. The TGI in experiment [1], in [2], in experiment [3], in [4], in experiment [5] and in experiment [6] was more than 100 µM each time. For the same compound, the TGI in [7], in [8], in experiment [9], in experiment [10], in experiment [12] and in [13] was more than 100 µM in each case. For the same compound, the TGI in experiment [14], in experiment [15] and in experiment [17] was more than 100 µM each time.
Take `CNc1cccc(-c2cc(=O)c3cc4c(cc3[nH]2)OCO4)c1`: the TGI is more than 100 µM in experiment [1]; more than 100 µM in experiment [3]; more than 72.2 µM in experiment [4]; more than 100 µM in experiment [5]; 1.38 µM in experiment [8]; 11 µM in experiment [9]. Moreover, the TGI in experiment [16] was 97.8 µM; in experiment [10], more than 44.5 µM; in [11], more than 100 µM; in experiment [12], more than 100 µM; in [13] it was more than 49.5 µM; in [14], more than 22.9 µM. The TGI in experiment [15] is more than 100 µM; in experiment [17], 0.443 µM.
For the compound `O=C1CCN(CCC(F)(F)C(F)(F)C(F)(F)C(F)(F)F)C(=S)N1`, the TGI in [1], in experiment [2], in [3], in experiment [4], in [6] and in experiment [7] was more than 100 µM throughout. Moreover, the TGI in [9], in experiment [16], in experiment [10], in experiment [12], in experiment [13] and in experiment [14] was more than 100 µM throughout. For the same compound, the TGI in experiment [15] and in experiment [17] was more than 100 µM each time.
On to `CC1=N/C(=C\c2ccc(N)cc2)C(=O)N1Nc1nnc(NN2C(=O)/C(=C/c3ccc(N)cc3)N=C2C)c2ccccc12`, for which the TGI in [1] was more than 100 µM; in experiment [2] it was more than 100 µM; in [3] it was more than 100 µM; in [4], more than 100 µM; in [5], more than 100 µM; in [6], 64.3 µM. Also, the TGI in [7] was more than 100 µM; in experiment [9], more than 100 µM; in experiment [16], more than 100 µM; in experiment [12], more than 100 µM; in [13], more than 100 µM; in experiment [14], 69.3 µM. Besides, the TGI is more than 100 µM in experiment [15] and 41.7 µM in experiment [17].
On to `Cc1ccc(NCCO)cc1`, for which the TGI in [2], in experiment [3], in [4], in [5], in experiment [6] and in experiment [7] was more than 100 µM throughout. For the same compound, the TGI in experiment [9], in experiment [16], in experiment [10], in experiment [12], in experiment [13] and in experiment [14] was more than 100 µM each time. Moreover, the TGI in experiment [15] and in experiment [17] was more than 100 µM in each case.
